The values below come from publication PMC2361176, “Inhibitory effects of retinoic acid metabolism blocking agents (RAMBAs) on the growth of human prostate cancer cells and LNCaP prostate tumour xenografts in SCID mice” (British Journal of Cancer, 2006).

The structures appear in SMILES notation.

The subject of data set [1] is MCF-7 human breast cancer model. Details: method as in Patel et al, 2004, 2006. As to conditions: ref Patel et al, 2004, 2006; cited from earlier work.
A further data set concerns the target T1, CYP26 (Homo sapiens, UniProt O43174).
T1 construct: LNCaP cells were incubated with 1 μM ATRA for 24 h to induce the CYP26 enzyme; endogenous in cells; host or cells: LNCaP human prostate cancer cells, pre-treated with 1 μM ATRA
T1 sequence (O43174 1-497): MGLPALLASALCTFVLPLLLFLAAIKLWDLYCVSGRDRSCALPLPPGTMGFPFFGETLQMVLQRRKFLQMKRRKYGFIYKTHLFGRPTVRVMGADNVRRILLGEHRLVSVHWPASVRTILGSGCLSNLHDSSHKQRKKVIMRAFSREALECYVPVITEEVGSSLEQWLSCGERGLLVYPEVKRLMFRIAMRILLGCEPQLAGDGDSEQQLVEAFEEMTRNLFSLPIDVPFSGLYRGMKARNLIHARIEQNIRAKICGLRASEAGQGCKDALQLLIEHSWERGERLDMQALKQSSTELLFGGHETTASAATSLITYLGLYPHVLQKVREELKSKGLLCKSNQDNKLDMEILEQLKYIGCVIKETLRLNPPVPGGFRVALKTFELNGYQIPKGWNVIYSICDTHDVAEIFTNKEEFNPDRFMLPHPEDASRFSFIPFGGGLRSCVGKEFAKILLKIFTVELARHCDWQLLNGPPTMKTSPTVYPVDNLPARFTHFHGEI
Kind of data set: Cellular microsomal CYP26 assay (ATRA metabolism of microsomes prepared from T47D cells). It is filed as biochemical.

For a further data set, the system named is T47D cells. Details: method as in Patel et al, 2004. As to conditions: cellular assay; ref Patel et al, 2004; read-out: IC50, inhibition of ATRA metabolism in T47D cells; cited from earlier work.

Turning to `CC1=C(/C=C/C(C)=C/C=C/C(C)=C/C(=O)O)C(C)(C)CCC1n1ccnc1` (stereo not shown) [VN/14-1], the antitumour efficacy result in data set [1] is “excellent antitumour efficacy”.
What is called IC50 is the midpoint of a concentration-inhibition curve. As for `CC1=C(/C=C/C(C)=C/C=C/C(C)=C/C(=O)n2ccnc2)C(C)(C)CCC1n1ccnc1` (stereo not shown) [VN/50-1], on CYP26 (microsomal vs cellular IC50), the “fold higher potency in microsomes compared to the cellular IC50 value” is listed as approximately 13 fold. Besides, the IC50 at CYP26 (microsomes, read-out: IC50, inhibition of ATRA metabolism of microsomes prepared from T47D cells previously exposed to ATRA) was 7 ± 1.2 nM; in the data set with T47D cells it was 10 nM.
